Laboratory results taken from article PMC6478789, “A chemical toolbox for the study of bromodomains and epigenetic signaling” (Nature Communications, 2019).

Tests used:
NSD1 = molecular target: T1, NSD1 (Homo sapiens, UniProt Q96L73); assay: Methyl transferase scintillation proximity assay; assay type: biochemical; conditions: average of two measurements; for inhibition at 10 µM: read-out: MTases Inhibition (%)
T1 construct: purchased DiscoverX BROMOscan (bromodomains); SGC in-house methyltransferase panel
T1 sequence (Q96L73 whole entry): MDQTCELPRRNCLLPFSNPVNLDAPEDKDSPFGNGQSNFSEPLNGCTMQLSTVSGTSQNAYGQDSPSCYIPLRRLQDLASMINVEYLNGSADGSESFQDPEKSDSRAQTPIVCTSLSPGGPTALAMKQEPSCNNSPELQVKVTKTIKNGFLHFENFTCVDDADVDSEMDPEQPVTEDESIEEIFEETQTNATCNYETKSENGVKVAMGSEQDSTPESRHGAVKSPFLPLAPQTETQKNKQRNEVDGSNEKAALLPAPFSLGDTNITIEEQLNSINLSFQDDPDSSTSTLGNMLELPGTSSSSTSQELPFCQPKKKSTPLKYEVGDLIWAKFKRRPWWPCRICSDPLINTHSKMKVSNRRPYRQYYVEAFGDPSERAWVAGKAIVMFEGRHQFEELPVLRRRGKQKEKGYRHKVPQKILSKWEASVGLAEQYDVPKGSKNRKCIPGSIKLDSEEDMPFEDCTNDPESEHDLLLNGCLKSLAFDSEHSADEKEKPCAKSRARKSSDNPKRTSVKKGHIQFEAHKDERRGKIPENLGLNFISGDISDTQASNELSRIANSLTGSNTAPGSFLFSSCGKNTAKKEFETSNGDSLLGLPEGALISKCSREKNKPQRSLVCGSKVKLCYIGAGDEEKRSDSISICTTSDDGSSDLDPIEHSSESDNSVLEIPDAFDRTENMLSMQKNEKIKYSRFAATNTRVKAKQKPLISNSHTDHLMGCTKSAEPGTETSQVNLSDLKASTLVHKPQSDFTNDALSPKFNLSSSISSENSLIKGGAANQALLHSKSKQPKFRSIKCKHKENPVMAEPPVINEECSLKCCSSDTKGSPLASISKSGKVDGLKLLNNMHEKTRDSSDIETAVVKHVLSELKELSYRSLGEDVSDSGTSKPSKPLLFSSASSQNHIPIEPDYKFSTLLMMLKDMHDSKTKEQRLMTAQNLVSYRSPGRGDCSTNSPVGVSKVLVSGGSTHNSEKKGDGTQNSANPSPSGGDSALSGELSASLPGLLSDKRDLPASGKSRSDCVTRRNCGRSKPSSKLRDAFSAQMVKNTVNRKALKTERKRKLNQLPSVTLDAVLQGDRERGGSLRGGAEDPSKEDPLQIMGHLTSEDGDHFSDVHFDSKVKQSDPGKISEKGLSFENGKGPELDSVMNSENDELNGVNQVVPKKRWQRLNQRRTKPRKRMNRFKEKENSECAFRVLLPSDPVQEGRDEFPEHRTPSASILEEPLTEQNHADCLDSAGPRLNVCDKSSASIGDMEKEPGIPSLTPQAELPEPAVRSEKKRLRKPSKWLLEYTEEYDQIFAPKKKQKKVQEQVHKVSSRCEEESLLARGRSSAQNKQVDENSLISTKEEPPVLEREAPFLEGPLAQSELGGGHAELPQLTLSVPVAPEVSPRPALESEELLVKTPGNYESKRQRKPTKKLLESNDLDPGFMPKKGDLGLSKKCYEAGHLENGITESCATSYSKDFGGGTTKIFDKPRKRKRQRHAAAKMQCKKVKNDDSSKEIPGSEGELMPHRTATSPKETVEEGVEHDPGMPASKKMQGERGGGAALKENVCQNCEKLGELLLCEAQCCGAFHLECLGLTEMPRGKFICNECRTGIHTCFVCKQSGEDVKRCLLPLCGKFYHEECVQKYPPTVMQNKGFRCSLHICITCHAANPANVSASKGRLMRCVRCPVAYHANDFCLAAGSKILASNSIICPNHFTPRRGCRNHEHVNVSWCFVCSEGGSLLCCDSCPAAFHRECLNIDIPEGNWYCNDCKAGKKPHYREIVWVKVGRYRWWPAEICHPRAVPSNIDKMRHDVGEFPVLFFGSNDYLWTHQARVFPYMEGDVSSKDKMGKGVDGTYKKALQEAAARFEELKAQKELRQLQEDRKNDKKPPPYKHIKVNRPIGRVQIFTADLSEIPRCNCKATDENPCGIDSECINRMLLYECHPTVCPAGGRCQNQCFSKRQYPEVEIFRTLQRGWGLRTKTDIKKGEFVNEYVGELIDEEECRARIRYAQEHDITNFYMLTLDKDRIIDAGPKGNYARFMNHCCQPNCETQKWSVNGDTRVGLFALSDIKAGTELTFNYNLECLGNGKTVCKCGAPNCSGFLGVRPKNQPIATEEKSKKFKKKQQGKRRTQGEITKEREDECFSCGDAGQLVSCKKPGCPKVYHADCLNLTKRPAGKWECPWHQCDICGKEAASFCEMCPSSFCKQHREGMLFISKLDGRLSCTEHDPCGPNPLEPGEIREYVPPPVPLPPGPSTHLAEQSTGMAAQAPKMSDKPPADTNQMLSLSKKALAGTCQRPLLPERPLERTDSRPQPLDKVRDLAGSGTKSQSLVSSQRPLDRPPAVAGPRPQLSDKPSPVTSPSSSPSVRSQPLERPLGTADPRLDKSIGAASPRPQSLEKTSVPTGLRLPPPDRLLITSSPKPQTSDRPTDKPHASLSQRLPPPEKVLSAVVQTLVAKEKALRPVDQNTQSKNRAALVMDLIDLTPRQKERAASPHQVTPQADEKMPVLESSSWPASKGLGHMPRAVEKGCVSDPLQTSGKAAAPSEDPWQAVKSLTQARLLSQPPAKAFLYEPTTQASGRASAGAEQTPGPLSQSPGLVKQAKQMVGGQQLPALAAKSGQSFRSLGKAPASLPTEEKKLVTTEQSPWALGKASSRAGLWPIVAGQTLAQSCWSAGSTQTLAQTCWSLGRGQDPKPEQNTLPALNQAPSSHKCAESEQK
In short: (§1)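 Read-out is scintillation counts (CPM) from biotinylated substrate carrying a ^3H-methyl group, normalised to no-compound (100%) and no-enzyme (0%) wells. Reactions used ^3H-SAM and substrate close to each enzyme's apparent Km.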

NSD3 = molecular target: T2, NSD3 (Homo sapiens, UniProt Q9BZ95); assay: Methyl transferase scintillation proximity assay; assay type: biochemical; conditions: average of two measurements; for inhibition at 10 µM: read-out: MTases Inhibition (%)
T2 construct: purchased DiscoverX BROMOscan (bromodomains); SGC in-house methyltransferase panel
T2 sequence (Q9BZ95 1-1437): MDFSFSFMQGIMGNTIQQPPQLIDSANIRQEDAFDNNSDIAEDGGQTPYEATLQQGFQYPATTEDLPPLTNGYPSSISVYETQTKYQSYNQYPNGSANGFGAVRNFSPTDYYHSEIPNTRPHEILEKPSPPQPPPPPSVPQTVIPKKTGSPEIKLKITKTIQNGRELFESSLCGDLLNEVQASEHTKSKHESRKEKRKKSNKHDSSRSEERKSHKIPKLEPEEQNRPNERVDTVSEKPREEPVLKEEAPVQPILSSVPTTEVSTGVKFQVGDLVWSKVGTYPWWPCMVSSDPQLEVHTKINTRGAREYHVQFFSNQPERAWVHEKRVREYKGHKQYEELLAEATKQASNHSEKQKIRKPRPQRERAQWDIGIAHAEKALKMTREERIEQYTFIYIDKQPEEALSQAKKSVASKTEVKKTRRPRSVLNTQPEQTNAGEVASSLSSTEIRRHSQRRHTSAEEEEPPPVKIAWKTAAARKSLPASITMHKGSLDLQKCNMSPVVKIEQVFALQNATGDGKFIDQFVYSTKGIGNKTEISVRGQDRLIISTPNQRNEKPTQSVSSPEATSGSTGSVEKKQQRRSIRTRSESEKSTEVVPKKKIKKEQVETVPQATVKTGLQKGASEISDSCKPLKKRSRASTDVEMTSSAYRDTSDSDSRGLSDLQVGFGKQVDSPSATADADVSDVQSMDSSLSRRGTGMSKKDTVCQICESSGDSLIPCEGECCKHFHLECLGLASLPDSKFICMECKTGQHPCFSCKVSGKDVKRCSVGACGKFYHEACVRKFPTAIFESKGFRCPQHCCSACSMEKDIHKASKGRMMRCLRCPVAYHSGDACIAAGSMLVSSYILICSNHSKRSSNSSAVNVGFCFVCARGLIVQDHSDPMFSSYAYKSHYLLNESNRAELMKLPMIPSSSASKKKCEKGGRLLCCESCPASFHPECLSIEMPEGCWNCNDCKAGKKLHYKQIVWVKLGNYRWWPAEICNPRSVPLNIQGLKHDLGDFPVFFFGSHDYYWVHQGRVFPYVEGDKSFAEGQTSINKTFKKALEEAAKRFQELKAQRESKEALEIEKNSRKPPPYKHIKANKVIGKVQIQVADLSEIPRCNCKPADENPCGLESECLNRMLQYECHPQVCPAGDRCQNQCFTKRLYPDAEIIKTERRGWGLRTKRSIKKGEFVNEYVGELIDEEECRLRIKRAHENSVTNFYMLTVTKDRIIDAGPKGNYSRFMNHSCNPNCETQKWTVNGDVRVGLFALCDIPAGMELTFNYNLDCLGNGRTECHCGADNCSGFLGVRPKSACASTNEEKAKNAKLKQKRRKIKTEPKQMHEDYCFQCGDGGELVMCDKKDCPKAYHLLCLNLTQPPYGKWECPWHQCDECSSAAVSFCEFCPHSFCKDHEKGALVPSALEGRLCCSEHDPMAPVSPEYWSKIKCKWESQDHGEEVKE
In short: as §1

inhibition at 10 µM (NSD1) | inhibition at 10 µM (NSD3) | MTases Inhibition (%) (NSD1; 10µM) | MTases Inhibition (%) (NSD3; 10µM) | SMILES
11% | -2% | – | – | Cc1c(NC(=O)c2cc(C(N)=O)nc3cc(F)ccc23)c(C(F)(F)F)nn1Cc1ccc(C(C)(C)C)cc1 [BAY-588]
2% | 14% | – | – | COc1cc(Cl)c(C(=O)N[C@@H](CN[C@H]2CC[C@@H](N)CC2)Cc2ccc(C#N)cc2)cc1-c1ccc(CN[C@H](C)c2ccc(C)cc2)o1 [BAY-850]
2% | 3% | – | – | Cc1c(NC(=O)c2cc(C(N)=O)nc3cc(F)ccc23)c(C(F)(F)F)nn1Cc1ccc(C#N)cc1 [BAY-876]
4% | 10% | – | – | CN1C[C@H](Nc2cnn(C)c(=O)c2Br)C[C@H](c2ccccc2)C1 [GSK4027]
– | – | 1% | 7% | COc1ccccc1C(=O)Nc1cc2c(cc1N1CCNC[C@H]1C)n(C)c(=O)n2C [GSK6853]
19% | 13% | – | – | CO[C@H]1CNC[C@@H](OCC2CCC(F)(F)CC2)[C@@H]1Nc1ncc(-c2cncc(C)c2)c2cc(C)c(=O)[nH]c12 [GSK8814]
-6% | 5% | – | – | Cc1nnc2c3ccccc3c(N[C@@H](C)[C@H](c3ccccc3)N(C)C)nn12 [L-Moses]
1% | 15% | – | – | CN(C)CCCOc1ccc(-c2cc(NCCCn3cccn3)nc(S(C)(=O)=O)n2)cc1 [TP-238]
